Data: US6875759B1, “Substituted guanidines and the use thereof” (Kadmus Pharmaceuticals, priority 1999, dated 2005)
Entries after “also recorded” stand apart in the source; their conditions may differ. Where two headings read alike, the source gives them in different places.

Assays:
[1] = system: hormone-independent prostate cancer cell line DU145; assay: In vitro cytotoxicity, MTS (CellTiter 96 Aqueous Proliferation Assay), prostate cancer cells; assay type: cell-based, human
Description: (§1) FIG. 1 is a graph which compares the effects of the compound of Example 8 on normal human endothelial cells (AH-9) and human prostate cancer cells (DU145). Cells were exposed to the compound for seven days at the concentrations indicated. Cytotoxicity was assessed using the MTS assay.
(§2) In these experiments, cells were seeded at 400 cells per well 24 hours prior to addition of the test compound. Cells were grown at 37° C. in a humidified atmosphere of 95% air, 5% CO2 for 7 days with daily media changes. Cytotoxicity was assessed using the CellTiter 96 Aqueous Proliferation Assay (Promega, Madison, Wis.).
(§3) In a separate experiment (FIG. 1), normal human endothelial cells (AH-9) and human prostate cancer cells (DU145) were exposed to increasing concentrations of the compound of Example 8 for seven days.

[2] = system: breast cancer cell line HS578T; assay: In vitro cytotoxicity, MTS assay, breast cancer cells; assay type: cell-based, human; conditions: 7 days exposure, dose causing death to 50% of cells, read-out: Cell Survival ED 50 Breast
Description: as §2

[3] = system: human prostate (DU14) cancer cells; assay type: in vivo; conditions: daily i.p. for five days
Excerpt: FIG. 2A is a bar graph which depicts the effect of the compound of Example 8 (1-[N,N′-di-p-tolyl)amidino]-4-(trans-1′-cinnamyl)piperizine) on human prostate cancer in BDF/1 mice using the sub-renal capsule assay.
Human cancer cells can be grown in the sub-renal capsule of immuno-competent mice where, for a limited period of time, they escape detection by the mouse's immune system. Thus, the sub-renal capsule assay provides a convenient system to study the effect of drugs on the growth of tumor cells in vivo (Bogden, A. E., et al., Exp. Cell Biol. 47:281 (1979)). Briefly, female BDF mice weighing 18-20g were anesthetized, the left kidney exteriorized and a small nick was made in the kidney capsule for implantation of tumor cells. Approximately 1×10^6 human prostate (DU14) or pancreatic cancer (HS766T) cells were prepared as a fibrinogen-jelled pellet (Stratton, J. A., et al., Gynecol. Oncol. 19:336 (1984); Stratton, J. A., et al., Gynecol. Oncol. 30:416 (1988)) and implanted beneath the renal capsule. […] One day after the final injection, the animals were killed and the tumor volume was measured. Tumor growth was determined by subtracting the initial size of the implant from the size of the implant size following treatment (Stratton, J. A., et al., Gynecol Oncol. 19:336 (1984); Stratton, J. A., et al., Gynecol. Oncol. 30:416 (1988)).

[4] = system: HS578T breast cancer cells; assay: DNA fragmentation, TUNEL assay by flow cytometry; assay type: cell-based, human; conditions: 12.5 or 25 μM for 24 hours
Description: FIGS. 4A-4C illustrate the effects of compound of Example 8 on HS578-T breast carcinoma cells. Cells were exposed to the compound at zero μM (FIG. 4A), 12.5 μM (FIG. 4B) or 25 μM (FIG. 4C) for 24 hours, and the degree of DNA fragmentation measured by flow cytometry using the TUNEL assay.
The TUNEL assay examines DNA fragmentation using flow cytometry to detect DNA that is labeled with fluorescein dUTP compared to the total nuclear DNA content of the cell as measured using propidium iodide. Human HS578T breast cancer cells were treated with either 12.5 or 25 μM of the compound of Example 8 for 24 hours. As cells undergo apoptosis, DNA fragmentation occurs in a relatively intact nucleus, giving rise to a higher fluorescent intensity (x-axis) with stable staining by propidium iodide (y-axis).

[5] = system: human prostate (DU145) cancer cells; assay: Mitochondrial membrane depolarization, JC-1 flow cytometry, prostate cancer cells; assay type: cell-based; conditions: 25 μM, five hours following drug exposure
Description: FIGS. 5D-5F illustrate the effects of compound of Example 8 on human prostate cancer cells (DU145). Mitochondrial membrane depolarization was assessed by flow cytometry as measured by the fluorescence of cation, JC-1. Cells were exposed to 25 μM of the compound and fluorescence measured at: 0 hours (FIG. 5D), 2.5 hours (FIG. 5E) and 4.5 hours (FIG. 5F).
Mitochondrial membrane depolarization is an early event in apoptosis. […] These early changes in mitochondrial function can be detected using a fluorescent cation, JC-1, that emits a red color when sequestered in the mitochondria of healthy cells, or a green color when localized to the cytoplasm.
Human breast (HS578-T) and prostate (DU145) cancer cells were exposed to 25 μM of the compound of Example 8 for varying lengths of times. Both cell lines lost the capacity to sequester JC-1 in the mitochondrial compartment as indicated by a time-dependent increase in green vs. red fluorescence (FIGS. 5A-5F). In an attempt to better quantitate the results of these experiments, the scans were divided into quadrants. At time 0, greater than 90% of the dye was localized in the mitochondria in both breast and prostate cancer cells. By five hours following drug exposure, the mitochondria from the prostate and breast cells contained only 33% and 22% of the dye, respectively.

[6] = system: pancreas cancer cell line HS766T; assay: In vitro cytotoxicity, MTS assay, pancreas cancer cells; assay type: cell-based, human; conditions: 7 days exposure, dose causing death to 50% of cells, read-out: Cell Survival ED 50 Pancreas
Description: as §2

caspase-3 (CPP-32) = assay: Caspase-3 activation, western blot of cytosolic fractions; assay type: cell-based, human; conditions: breast cancer cells (HS578-T); 25 μM; 0-240 minutes
Description: FIG. 6 is an immunoblot illustrating the activation of caspase 3 in human breast cancer cells (HS578-T) exposed to 25 μM of the compound of Example 8. Cells were exposed to the compound for 0, 30, 60, 90, 150, and 240 minutes of treatment with peak activity occurring 90 minutes after drug addition.
When cells are induced to undergo apoptosis the cell death effector, caspase-3 (CPP-32), is cleaved and activated by proteolytic enzymes.

[7] = system: DU145 prostate carcinoma xenografts; assay: Anti-tumor activity in athymic mice bearing DU145 prostate carcinoma; assay type: in vivo, mouse; conditions: male nude mice; 12.5 mg/kg/d i.p. daily for two weeks; FIG. 3; 12.5 mg/kg/day
Description: FIG. 3 is a graph showing the effect of the compound of Example 8, at a dose of zero mg/kg (filled circles) and at a dose of 12.5 mg/kg (open circles), on human prostate cancer xenographs in BALB/C/NU mice.
DU145 tumor cells were injected subcutaneously into the flank of male nude mice (day 0). Palpable tumors develop within 14 days at which time the animals were treated for two weeks with daily intraperitoneal injections of either the compound of Example 8 or the control vehicle. Tumors were measured every two days and volume of tumor was calculated using the formula: Tumor volume=length×[…] At the end of the study, tumors in control mice had nearly tripled in size. […] Mechanism of Action

[8] = system: normal human endothelial cells (AH-9); assay: In vitro cytotoxicity, MTS assay, normal endothelial cells; assay type: cell-based; conditions: AH-9 normal endothelial cells; separate experiment (FIG. 1); seven days; read-out: EC50 cytotoxic activity
Description: as §1, §3

Work on Cc1ccc(N=C(Nc2ccc(C)cc2)N2CCN(C/C=C/c3ccccc3)CC2)cc1 [Example 8, 1-[(N,N′-Di-p-tolyl)amidino]-(trans-1′-cinnamyl)piperizine] yielded an EC50 ([1]; 7 days exposure, MTS, dose causing death to 50% of cells, read-out: Cell Survival ED 50 Prostate) of 1300 nM, an EC50 ([1]; separate experiment (FIG. 1), seven days, read-out: EC50 cytotoxic activity) of 3400 nM and an EC50 [2] of 2300 nM. The “inhibition of tumor growth” value ([3]; prostate cancer cell line in mouse sub-renal capsule) was “greater than 95%”, the “effect on tumor growth (in words)” value ([3]; prostate implant, FIG. 2A) was “dose-dependent and highly significant inhibition of tumor growth” and the “DNA fragmentation (TUNEL)” value [4] was “pattern of DNA fragmentation characteristic of apoptosis”. The “JC-1 dye contained in mitochondria” value [5] was 33%, the EC50 [6] was 1800 nM and the “processed (activated) caspase-3 (in words)” value (caspase-3 (CPP-32)) was “time-dependent increase in processed caspase-3”. For the same compound, the “tumor growth in xenograft (in words)” value [7] was “active; also recorded: failed to grow” and the EC50 [8] was 95000 nM.
